Here are results for 73 molecules from patent US20160194299A1 (priority 2013, published 2016).

The subject of one data set is Mtb. Put plainly: microbe, parasite or virus in culture. The format is cell-based, Mycobacterium tuberculosis. The conditions noted are these: Mycobacterium tuberculosis.
Another data set can be described thus: in vitro. Particulars: African green monkey.
Where [1] appears, read: read-out: MIC, microplate alamar blue assay (MABA; I).

SMILES strings stand for the structures. Values after ≈ are worked out from the molar mass of the structure shown. Where two headings read alike, the source gives them in different places. Bounds are passed on as bounds.

In the case of `CCOC(=O)NC(=O)c1cc(C)sc1NC(=O)c1nc2ccccc2s1` [Compound 14], in the data set with Mtb (read-out: MIC (I)), the MIC is < 1 µg/mL. On the same count and under the same terms, then `CCOC(=O)NC(=O)c1cc(Cl)sc1NC(=O)c1nc2ccccc2s1` [Compound 15], with < 1 µg/mL. With `CCOC(=O)NC(=O)c1cc(F)sc1NC(=O)c1nc2ccccc2s1` [Compound 16], the MIC with Mtb (read-out: MIC (I)) was < 1 µg/mL. For the same molecule, the CC50 in “in vitro” is 25 to 50 µg/mL (≈ 63.5 to 127 µM). The matching figures for `O=C(NC(=O)c1cc(F)sc1NC(=O)c1nc2ccccc2s1)OCC(F)(F)F` [Compound 17]: < 1 µg/mL and < 25 µg/mL. As to `CCCCOC(=O)NC(=O)c1ccsc1NC(=O)c1nc2ccccc2s1` [Compound 19], the MIC with Mtb (read-out: MIC (I)) is < 1 µg/mL. On the same count and under the same terms, then `COC(=O)NC(=O)c1ccsc1NC(=O)c1nc2ccccc2s1` [Compound 21], with < 1 µg/mL. As to `CCOC(=O)NC(=O)c1ccsc1NC(=O)c1cncc(NC(C)=O)c1` [Compound 22], the MIC with Mtb (read-out: MIC (I)) is < 1 µg/mL. The same measure, in the same setting: as for `CC(C)(C)OC(=O)NC(=O)c1ccsc1NC(=O)c1nc2ccccc2s1` [Compound 23], the figure is < 1 µg/mL. Take `CC(OC(=O)NC(=O)c1ccsc1NC(=O)c1nc2ccccc2s1)C(F)(F)F` (centres unmarked) [Compound 24]: in the data set on Mtb (read-out: MIC (I)), the MIC was < 1 µg/mL. Moreover, the CC50 in the data set “in vitro” was < 25 µg/mL. Regarding `CC(C)(OC(=O)NC(=O)c1ccsc1NC(=O)c1nc2ccccc2s1)C(F)(F)F` [Compound 25], the MIC in the data set on Mtb (read-out: MIC (I)) was < 1 µg/mL. In addition, in “in vitro”, the CC50 lay in the range of 25 to 50 µg/mL (≈ 54.7 to 109 µM). The matching figures for `CCOC(=O)NC(=O)c1ccsc1NC(=O)c1ccc2ocnc2c1` [Compound 26]: < 1 µg/mL and > 50 µg/mL. The matching figures for `CCOC(=O)NC(=O)c1ccsc1NC(=O)c1ccc2c(c1)OCO2` [Compound 27]: < 1 µg/mL and < 25 µg/mL. On to `O=C(NC(=O)c1ccsc1NC(=O)c1nc2ccccc2s1)OC1CCCCC1` [Compound 30], for which the MIC in the data set on Mtb (read-out: MIC (I)) was < 1 µg/mL. In the data set “in vitro”, the CC50 is > 50 µg/mL. As to `O=C(NC(=O)c1ccsc1NC(=O)c1nc2ccccc2s1)OC1CCCC1` [Compound 31], in the data set on Mtb (read-out: MIC (I)), the MIC was < 1 µg/mL. In addition, in the data set “in vitro”, the CC50 is > 50 µg/mL. For the molecule `O=C(NC(=O)c1ccsc1NC(=O)c1nc2ccccc2s1)OCCN1CCOCC1` [Compound 38], the MIC with Mtb (read-out: MIC (I)) is < 1 µg/mL. The CC50 in the data set “in vitro” is > 50 µg/mL.

As for `CN(C)CCOC(=O)NC(=O)c1ccsc1NC(=O)c1nc2ccccc2s1` [Compound 39], the MIC with Mtb (read-out: MIC (I)) was > 3 µg/mL. The CC50 in “in vitro” was > 50 µg/mL.

In the case of `O=C(NC(=O)c1ccsc1NC(=O)c1nc2ccccc2s1)OCC(F)F` [Compound 40], in the data set on Mtb (read-out: MIC (I)), the MIC is < 1 µg/mL. Also, the CC50 in “in vitro” was < 25 µg/mL. The matching figures for `CCOC(=O)NC(=O)c1ccsc1NC(=O)c1ccc2ncsc2c1` [Compound 42]: < 1 µg/mL and < 25 µg/mL.

Consider `CCOC(=O)NC(=O)c1c(C)csc1NC(=O)c1nc2ccccc2s1` [Compound 44], for which the MIC in the data set on Mtb (read-out: MIC (I)) was in the range of 1 to 3 µg/mL (≈ 2.57 to 7.7 µM). In addition, the CC50 in the data set “in vitro” was > 50 µg/mL.

As to `CN(C)C(=O)NC(=O)c1ccsc1NC(=O)c1nc2ccccc2s1` [Compound 45], the MIC in the data set on Mtb (read-out: MIC (I)) is > 3 µg/mL. Besides, the CC50 in the data set “in vitro” was > 50 µg/mL.

Take `CCOC(=O)NC(=O)c1cnn(C)c1NC(=O)c1nc2ccccc2s1` [Compound 105]: the MIC with Mtb (read-out: MIC (I)) is > 3 µg/mL. Same read-out and setting: as for `CCOC(=O)NC(=O)c1ncsc1NC(=O)c1nc2ccccc2s1` [Compound 106], the figure is > 3 µg/mL. Take `O=C(Nc1sccc1C(=O)N1CCOC1=O)c1nc2ccccc2s1` [Compound 107]: the MIC with Mtb (read-out: MIC (I)) is > 3 µg/mL. Turning to `CCOS(=O)(=O)NC(=O)c1ccsc1NC(=O)c1nc2ccccc2s1` [Compound 108], the MIC with Mtb (read-out: MIC (I)) was > 3 µg/mL. For the molecule `CCNC(=O)NC(=O)c1ccsc1NC(=O)c1nc2ccccc2s1` [Compound 109], the MIC with Mtb (read-out: MIC (I)) is > 3 µg/mL.

As for `Cc1nnc(NC(=O)c2ccsc2NC(=O)c2nc3ccccc3s2)s1` [Compound 110], the MIC in the data set with Mtb (read-out: MIC (I)) was > 3 µg/mL.

As to `CCOC(=O)NC(=O)c1ccsc1NC(=O)c1cc(NC(C)=O)ccn1` [Compound 111], in the data set with Mtb (read-out: MIC (I)), the MIC is > 3 µg/mL. Consider `CCOC(=O)NC(=O)c1ccsc1NCc1nc2ccccc2s1` [Compound 209], for which, in “in vitro”, the CC50 is > 50 µg/mL.

For `Nc1nnc(-c2ccsc2NC(=O)c2nc3ccccc3s2)o1` [Compound 210], the CC50 in “in vitro” is > 50 µg/mL. Still for that read-out and setting: then `CCOC(=O)NC(=O)c1ccccc1NC(=O)c1nc2ccccc2s1` [Compound 214], with > 50 µg/mL; and `CCOC(=O)NC(=O)c1c(NC(=O)c2nc3ccccc3s2)sc(C#N)c1C` [Compound 216], with > 50 µg/mL; and `CCOC(=O)NC(=O)c1ccsc1NC(=O)c1nc2ccc(C)nc2s1` [Compound 224], with > 50 µg/mL. Same read-out and setting: as for `CN1CCN(C(=O)c2ccsc2NC(=O)c2nc3ccccc3s2)CC1` [Compound 225], the figure is 25 to 50 µg/mL (≈ 64.7 to 129 µM); as for `O=C(Nc1sccc1C(=O)N1CCNC1=O)c1nc2ccccc2s1` [Compound 226], > 50 µg/mL. Still for that read-out and setting: as for `CC(C)(C)OC(=O)N1CCN(C(=O)c2ccsc2NC(=O)c2nc3ccccc3s2)CC1` [Compound 227], the figure is > 50 µg/mL; as for `O=C(Nc1sccc1C(=O)N1CCNCC1)c1nc2ccccc2s1` [Compound 228], < 25 µg/mL; as for `CCOC(=O)NC(=O)c1ccsc1NC(=O)c1csc2c1CCN(S(C)(=O)=O)C2` [Compound 230], > 50 µg/mL.

`CCOC(=O)NC(=O)c1ccsc1NC(=O)c1csc2c1CCCC2` [Compound 231]: in the data set “in vitro”, the CC50 was < 25 µg/mL. For the molecule `CCOC(=O)NC(=O)c1ccsc1NC(=O)c1cc2c(s1)CCN(S(C)(=O)=O)C2` [Compound 232], the CC50 in the data set “in vitro” is > 50 µg/mL. Still for that read-out and setting: as for `CCOC(=O)NC(=O)c1ccsc1NC(=O)c1nc2c(s1)N(S(C)(=O)=O)CCC2` [Compound 233], the figure is > 50 µg/mL; as for `COC(=O)CNC(=O)c1ccsc1NC(=O)c1nc2ccccc2s1` [Compound 234], > 50 µg/mL; as for `CNC(=O)CNC(=O)c1ccsc1NC(=O)c1nc2ccccc2s1` [Compound 235], > 50 µg/mL. The same measure, in the same setting: then `COC(=O)CCCNC(=O)c1ccsc1NC(=O)c1nc2ccccc2s1` [Compound 236], with > 50 µg/mL.

`CCOC(=O)NC(=O)c1ccsc1NC(=O)Cc1nc2ccccc2s1` [Compound 238] showed a CC50 in the data set “in vitro” of 25 to 50 µg/mL (≈ 64.2 to 128 µM). Still for that read-out and setting: as for `CCOC(=O)NC(=O)c1ccsc1NC(=O)c1cc2c(s1)CCCC2` [Compound 239], the figure is > 50 µg/mL; as for `CCOC(=O)NC(=O)c1ccsc1NC(=O)c1nc(-c2ccccc2)cs1` [Compound 240], > 50 µg/mL; as for `CCOC(=O)NC(=O)c1ccsc1NC(=O)c1ccc(-c2csc(C)n2)cc1` [Compound 241], > 50 µg/mL. Regarding `CCOC(=O)NC(=O)c1ccsc1NC(=O)c1cc(=O)c2ccccc2o1` [Compound 400], the MIC with Mtb (setting [1]) was < 1 µg/mL. In “in vitro”, the CC50 was < 25 µg/mL. The matching figures for `CC(C)OC(=O)NC(=O)c1ccsc1NC(=O)c1cc(=O)c2ccccc2o1` [Compound 401]: < 1 µg/mL and < 25 µg/mL. For `CCOC(=O)NC(=O)c1ccsc1NC(=O)c1ccc2nonc2c1` [Compound 402], in that order: < 1 µg/mL and < 25 µg/mL.

For the molecule `CC(C)OC(=O)NC(=O)c1ccsc1NC(=O)c1ccc2nonc2c1` [Compound 403], the MIC in the data set with Mtb (setting [1]) was < 1 µg/mL. Further, in the data set “in vitro”, the CC50 was < 25 µg/mL. Turning to `COc1ccc2c(c1)C=C(C(=O)Nc1sccc1C(=O)NC(=O)OC(C)C)CO2` [Compound 404], the MIC in the data set with Mtb (setting [1]) was < 1 µg/mL. For the same molecule, in “in vitro”, the CC50 was < 25 µg/mL. Turning to `CCOC(=O)NC(=O)c1ccsc1NC(=O)c1cn2ccc(C#N)cc2n1` [Compound 405], in the data set with Mtb (setting [1]), the MIC fell in the range of 1 to 3 µg/mL (≈ 2.61 to 7.82 µM). In addition, in the data set “in vitro”, the CC50 was < 25 µg/mL. For the molecule `O=C(NC(=O)c1ccsc1NC(=O)c1nc2cnccc2s1)OCC(F)(F)F` [Compound 406], the MIC in the data set with Mtb (setting [1]) is < 1 µg/mL. Moreover, the CC50 in the data set “in vitro” was < 25 µg/mL. Take `CCOC(=O)NC(=O)c1ccsc1NC(=O)c1cc2cccc(F)c2s1` [Compound 407]: the MIC in the data set on Mtb (setting [1]) is < 1 µg/mL. In the data set “in vitro”, the CC50 is < 25 µg/mL. For `CC(C)OC(=O)NC(=O)c1ccsc1NC(=O)c1cc2cccc(F)c2s1` [Compound 408], in that order: < 1 µg/mL and < 25 µg/mL. Regarding `CCOC(=O)NC(=O)c1ccsc1NC(=O)c1nc2nc(C)c(Cl)cc2s1` [Compound 409], the MIC in the data set with Mtb (setting [1]) is < 1 µg/mL. Further, the CC50 in the data set “in vitro” is 25 to 50 µg/mL (≈ 58.8 to 118 µM). For `CC(C)OC(=O)NC(=O)c1ccsc1NC(=O)c1ccc2ncsc2c1` [Compound 410], in that order: < 1 µg/mL and < 25 µg/mL.

Take `CCOC(=O)NC(=O)c1cc(C)sc1NC(=O)c1nc2cnccc2s1` [Compound 443]: the MIC in the data set on Mtb (setting [1]) is < 1 µg/mL. For the molecule `COC(=O)c1cccnc1NC(=O)c1nc2ccccc2s1` [Compound 444], the MIC in the data set on Mtb (setting [1]) is 1 to 3 µg/mL (≈ 3.19 to 9.57 µM).

Regarding `CCOC(=O)NC(=O)c1cc(Cl)sc1NC(=O)c1nc2cnccc2s1` [Compound 445], the MIC in the data set with Mtb (setting [1]) was < 1 µg/mL. The same measure, in the same setting: as for `CCOC(=O)NC(=O)c1cc(C)sc1NC(=O)c1nc2ncccc2s1` [Compound 446], the figure is < 1 µg/mL; as for `CC(C)OC(=O)NC(=O)c1ccsc1NC(=O)c1cccc2cc(Cl)ccc12` [Compound 447], 1 to 3 µg/mL (≈ 2.4 to 7.2 µM). Same read-out and setting: as for `CCOC(=O)NC(=O)c1ccsc1NC(=O)c1ccc2nsnc2c1` [Compound 448], the figure is < 1 µg/mL; as for `CC(C)OC(=O)NC(=O)c1ccsc1NC(=O)c1ccc2nsnc2c1` [Compound 449], < 1 µg/mL; as for `CCOC(=O)NC(=O)c1ccsc1NC(=O)c1ccnc2cc(Cl)ccc12` [Compound 450], > 3 µg/mL. On to `CCOC(=O)NC(=O)c1ccsc1NC(=O)c1ccn2cnnc2c1` [Compound 451], for which, in the data set on Mtb (setting [1]), the MIC is < 1 µg/mL. Same read-out and setting: as for `CC(C)OC(=O)NC(=O)c1ccsc1NC(=O)c1ccn2cnnc2c1` [Compound 452], the figure is < 1 µg/mL. The same measure, in the same setting: then `O=C(Nc1sccc1C(=O)Nc1ccccn1)c1nc2cnccc2s1` [Compound 454], with > 3 µg/mL; and `O=C(Nc1sccc1C(=O)NCC1CCCO1)c1nc2cnccc2s1` (centres unmarked) [Compound 455], with > 3 µg/mL.

As for `O=C(Nc1sccc1C(=O)Nc1ncco1)c1nc2cnccc2s1` [Compound 456], in the data set with Mtb (setting [1]), the MIC was in the range of 1 to 3 µg/mL (≈ 2.69 to 8.08 µM). On to `CCOC(=O)NC(=O)c1ccsc1NC(=O)c1nc2ncc(C)cc2s1` [Compound 457], for which the MIC in the data set with Mtb (setting [1]) is < 1 µg/mL.

As to `CCOC(=O)NC(=O)c1ccsc1NC(=O)c1nc2ccncc2s1` [Compound 458], the MIC with Mtb (setting [1]) was > 3 µg/mL.
